Results: patent publication US20260265238A1, “COMPOUNDS AND PHARMACEUTICAL COMPOSITIONS THAT DEGRADE SWI/SNF-RELATED MATRIX-ASSOCIATED ACTIN-DEPENDENT REGULATOR OF CHROMATIN SUBFAMILY A” (Plexium, Inc., priority 2023, published 2026)

Assays:
[1] = target: T1, SMARCA4-HiBiT HeLa cells (protein which is expressed from the SMARCA4 gene) (Homo sapiens, UniProt P51532); assay: SMARCA4 degradation assay (HiBiT-fusion HeLa cell line, 24 h, luminescence); format: cell-based
T1 construct: protein which is expressed from the SMARCA2 and SMARCA4 genes; host or cells: HeLa (SMARCA4-HiBiT engineered line)
T1 sequence (P51532 whole entry, the tested form may be a part): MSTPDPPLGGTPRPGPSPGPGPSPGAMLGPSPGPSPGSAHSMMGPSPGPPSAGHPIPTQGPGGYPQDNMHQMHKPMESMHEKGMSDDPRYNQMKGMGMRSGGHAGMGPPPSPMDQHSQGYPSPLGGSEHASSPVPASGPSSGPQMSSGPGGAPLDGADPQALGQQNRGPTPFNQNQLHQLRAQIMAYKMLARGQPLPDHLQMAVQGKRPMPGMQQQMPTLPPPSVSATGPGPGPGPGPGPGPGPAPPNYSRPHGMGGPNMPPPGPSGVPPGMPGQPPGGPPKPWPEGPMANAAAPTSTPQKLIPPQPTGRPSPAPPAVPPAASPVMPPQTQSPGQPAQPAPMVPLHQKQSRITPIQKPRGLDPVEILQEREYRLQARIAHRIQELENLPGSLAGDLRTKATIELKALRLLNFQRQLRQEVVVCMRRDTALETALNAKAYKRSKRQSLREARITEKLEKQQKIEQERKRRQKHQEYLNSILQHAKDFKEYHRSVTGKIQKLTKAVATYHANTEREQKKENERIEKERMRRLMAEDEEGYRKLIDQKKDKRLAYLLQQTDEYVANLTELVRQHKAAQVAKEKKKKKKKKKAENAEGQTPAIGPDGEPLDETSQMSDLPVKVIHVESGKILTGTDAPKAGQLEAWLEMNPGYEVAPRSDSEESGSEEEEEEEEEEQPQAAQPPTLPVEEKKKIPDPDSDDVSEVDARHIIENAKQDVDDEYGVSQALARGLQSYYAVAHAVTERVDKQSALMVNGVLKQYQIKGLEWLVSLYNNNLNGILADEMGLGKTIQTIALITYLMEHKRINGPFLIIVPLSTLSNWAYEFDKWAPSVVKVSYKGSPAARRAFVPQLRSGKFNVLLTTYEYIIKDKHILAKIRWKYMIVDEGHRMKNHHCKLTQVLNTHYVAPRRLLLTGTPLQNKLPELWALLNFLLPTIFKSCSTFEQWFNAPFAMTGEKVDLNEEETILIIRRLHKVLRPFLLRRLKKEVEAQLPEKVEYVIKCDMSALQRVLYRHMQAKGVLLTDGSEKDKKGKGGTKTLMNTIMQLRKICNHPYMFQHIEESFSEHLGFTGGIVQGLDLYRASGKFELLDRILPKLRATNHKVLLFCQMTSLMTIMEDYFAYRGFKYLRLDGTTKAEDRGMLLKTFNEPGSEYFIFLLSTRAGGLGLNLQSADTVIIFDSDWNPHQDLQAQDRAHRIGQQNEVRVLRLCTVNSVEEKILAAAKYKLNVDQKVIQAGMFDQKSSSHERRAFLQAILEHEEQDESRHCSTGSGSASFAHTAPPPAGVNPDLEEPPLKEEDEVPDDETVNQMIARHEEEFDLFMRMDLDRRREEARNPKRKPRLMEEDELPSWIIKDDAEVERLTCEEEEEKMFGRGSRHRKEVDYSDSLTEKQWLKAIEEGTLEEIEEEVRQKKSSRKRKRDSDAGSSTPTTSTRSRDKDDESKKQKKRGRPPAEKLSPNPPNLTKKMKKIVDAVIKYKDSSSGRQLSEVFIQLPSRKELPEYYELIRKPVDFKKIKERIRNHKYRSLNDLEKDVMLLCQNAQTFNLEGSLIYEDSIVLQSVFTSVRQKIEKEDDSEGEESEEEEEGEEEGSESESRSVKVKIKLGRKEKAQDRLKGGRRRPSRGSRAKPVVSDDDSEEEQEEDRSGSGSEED
Description: (§1) SMARCA2 and SMARCA4 Degradation Assay
(§2) Degradation of protein which is expressed from the SMARCA2 and SMARCA4 genes was monitored using engineered HiBiT-fusion HeLa cell lines from Promega. In brief, 384-well white opaque plates (Greiner) were seeded with SMARCA2-HiBiT or SMARCA4-HiBiT HeLa cells at 8,000 cells/well and incubated overnight at 37° C. to allow cell attachment. After overnight incubation, test compounds were added in a 10-point dilution series (typically 10 μM to 300 pM) using a TECAN D300e Digital Dispenser, and plates were subsequently incubated for 24 hours at 37° C. 24-hours post-treatment, protein levels were quantified with the addition of HiBiT lytic buffer, LgBiT protein, and HiBiT substrate, according to manufacturer's specifications. Plates were incubated on an orbital plate shaker for 10 minutes at room temperature. Resulting luminescent values were read out using a ClarioStar plate reader and used to construct dose-response curves and calculation of degradation DC50s (GraphPad Prism).
(§3) Activity of the tested compounds is provided in Table 4 below as follows: A=DC50<0.050 μM; B=0.05 μM<DC50<0.50 μM; C=<0.5 μM<DC50<5.0 μM; D=DC50>5.0 μM. For SMARCA2 and SMARCA4 degradation activity @1 μM, +++=>70%; ++=30-70%; +=<30%.

[2] = target: T2, SMARCA2-HiBiT HeLa cells (protein which is expressed from the SMARCA2 gene) (Homo sapiens, UniProt P51531); assay: SMARCA2 degradation assay (HiBiT-fusion HeLa cell line, 24 h, luminescence); format: cell-based
T2 construct: protein which is expressed from the SMARCA2 and SMARCA4 genes; host or cells: HeLa (SMARCA2-HiBiT engineered line)
T2 sequence (P51531 whole entry, the tested form may be a part): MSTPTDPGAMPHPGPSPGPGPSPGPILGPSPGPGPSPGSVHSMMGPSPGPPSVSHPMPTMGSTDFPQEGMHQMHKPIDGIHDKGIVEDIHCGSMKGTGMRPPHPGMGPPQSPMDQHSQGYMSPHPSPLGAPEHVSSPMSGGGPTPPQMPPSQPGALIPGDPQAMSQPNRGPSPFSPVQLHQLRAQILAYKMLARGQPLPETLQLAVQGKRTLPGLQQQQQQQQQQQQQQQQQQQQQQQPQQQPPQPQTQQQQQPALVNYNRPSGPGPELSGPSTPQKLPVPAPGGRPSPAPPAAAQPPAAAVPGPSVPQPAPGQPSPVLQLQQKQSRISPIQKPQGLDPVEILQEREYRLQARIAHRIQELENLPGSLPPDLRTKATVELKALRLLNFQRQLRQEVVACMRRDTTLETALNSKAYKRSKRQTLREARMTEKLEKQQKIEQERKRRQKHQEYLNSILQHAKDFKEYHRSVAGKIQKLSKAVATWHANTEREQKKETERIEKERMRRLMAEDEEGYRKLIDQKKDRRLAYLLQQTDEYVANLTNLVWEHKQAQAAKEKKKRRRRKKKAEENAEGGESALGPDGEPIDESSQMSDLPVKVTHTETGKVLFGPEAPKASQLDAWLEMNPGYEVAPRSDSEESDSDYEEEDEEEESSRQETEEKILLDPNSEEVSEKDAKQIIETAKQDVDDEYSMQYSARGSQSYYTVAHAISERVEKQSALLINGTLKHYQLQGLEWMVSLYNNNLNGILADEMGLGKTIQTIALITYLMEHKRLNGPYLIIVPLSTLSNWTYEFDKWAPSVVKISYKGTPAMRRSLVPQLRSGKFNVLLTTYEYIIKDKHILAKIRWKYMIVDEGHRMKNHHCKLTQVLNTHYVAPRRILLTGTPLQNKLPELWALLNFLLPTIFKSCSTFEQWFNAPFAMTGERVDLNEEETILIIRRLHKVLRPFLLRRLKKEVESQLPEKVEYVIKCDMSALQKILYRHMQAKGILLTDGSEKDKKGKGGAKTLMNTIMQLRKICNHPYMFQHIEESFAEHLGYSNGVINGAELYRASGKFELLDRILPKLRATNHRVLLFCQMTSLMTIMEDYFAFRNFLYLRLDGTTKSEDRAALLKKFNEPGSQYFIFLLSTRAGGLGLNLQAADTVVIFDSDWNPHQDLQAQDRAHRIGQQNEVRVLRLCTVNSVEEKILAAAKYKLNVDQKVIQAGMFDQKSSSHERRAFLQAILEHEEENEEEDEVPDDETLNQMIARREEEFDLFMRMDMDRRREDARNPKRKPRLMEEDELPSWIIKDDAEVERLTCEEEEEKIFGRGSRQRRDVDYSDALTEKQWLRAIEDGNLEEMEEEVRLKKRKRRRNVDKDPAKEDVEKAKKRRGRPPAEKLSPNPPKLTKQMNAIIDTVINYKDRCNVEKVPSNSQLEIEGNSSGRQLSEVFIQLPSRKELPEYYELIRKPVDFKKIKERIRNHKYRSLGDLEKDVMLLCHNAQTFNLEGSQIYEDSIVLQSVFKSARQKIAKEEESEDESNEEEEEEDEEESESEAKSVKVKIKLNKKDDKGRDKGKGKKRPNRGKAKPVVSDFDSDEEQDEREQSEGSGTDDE
Description: as §1, §2, §3

Row | SMILES | DC50 [1] [nM] | inhibition at 1 µM [1] [%] | DC50 [2] [nM] | SMARCA2 % Degradation @ 1 μM [2]
1 | Cc1cc(C(=O)NCC#Cc2nccc(N3CCN(c4cc(-c5ccccc5O)nnc4N)CC3)n2)no1 [Compound P-1, N-[3-(4-{4-[3-amino-6-(2-hydroxyphenyl)pyridazin-4-yl]piperazin-1-yl}pyrimidin-2-yl)prop-2-yn-1-yl]-5-methyl-1,2-oxazole-3-carboxamide] | 50 to 500 | 30 to 70 | 50 to 500 | ++ (++=30-70%)
2 | CCc1cc(C(=O)NCC#Cc2nccc(N3CCN(c4cc(-c5ccccc5O)nnc4N)CC3)n2)nn1C [Compound P-2, N-[3-(4-{4-[3-amino-6-(2-hydroxyphenyl)pyridazin-4-yl]piperazin-1-yl}pyrimidin-2-yl)prop-2-yn-1-yl]-5-ethyl-1-methyl-1H-pyrazole-3-carboxamide] | 50 to 500 | 30 to 70 | 50 to 500 | ++ (++=30-70%)
3 | Nc1nnc(-c2ccccc2O)cc1N1CCN(c2ccnc(C#CCNC(=O)c3cccnc3)n2)CC1 [Compound P-4, N-[3-(4-{4-[3-amino-6-(2-hydroxyphenyl)pyridazin-4-yl]piperazin-1-yl}pyrimidin-2-yl)prop-2-yn-1-yl]pyridine-3-carboxamide] | 50 to 500 | < 30 | 50 to 500 | ++ (++=30-70%)
4 | Nc1nnc(-c2ccccc2O)cc1N1CCN(c2ccnc(C#CCNC(=O)c3cccnn3)n2)CC1 [Compound P-5, N-[3-(4-{4-[3-amino-6-(2-hydroxyphenyl)pyridazin-4-yl]piperazin-1-yl}pyrimidin-2-yl)prop-2-yn-1-yl]pyridazine-3-carboxamide] | 50 to 500 | < 30 | 50 to 500 | ++ (++=30-70%)
5 | Cn1ccc(C(=O)NCC#Cc2nccc(N3CCN(c4cc(-c5ccccc5O)nnc4N)CC3)n2)n1 [Compound P-7, N-[3-(4-{4-[3-amino-6-(2-hydroxyphenyl)pyridazin-4-yl]piperazin-1-yl}pyrimidin-2-yl)prop-2-yn-1-yl]-1-methyl-1H-pyrazole-3-carboxamide] | < 50 | 30 to 70 | 50 to 500 | ++ (++=30-70%)
6 | Cc1c(C(=O)NCC#Cc2nccc(N3CCN(c4cc(-c5ccccc5O)nnc4N)CC3)n2)nn(C)c1C [Compound P-8, N-[3-(4-{4-[3-amino-6-(2-hydroxyphenyl)pyridazin-4-yl]piperazin-1-yl}pyrimidin-2-yl)prop-2-yn-1-yl]-1,4,5-trimethyl-1H-pyrazole-3-carboxamide] | < 50 | 30 to 70 | 50 to 500 | ++ (++=30-70%)
7 | Nc1nnc(-c2ccccc2O)cc1N1CCN(c2ccnc(C#CCNC(=O)c3ccn(CC(F)(F)F)n3)n2)CC1 [Compound P-9, N-[3-(4-{4-[3-amino-6-(2-hydroxyphenyl)pyridazin-4-yl]piperazin-1-yl}pyrimidin-2-yl)prop-2-yn-1-yl]-1-(2,2,2-trifluoroethyl)-1H-pyrazole-3-carboxamidc] | < 50 | 30 to 70 | 50 to 500 | ++ (++=30-70%)
8 | Cc1cc(C(=O)NCC#Cc2nccc(N3CCN(c4cc(-c5ccccc5O)nnc4N)CC3)n2)nn1C [Compound P-12, N-(3-(4-(4-(3-amino-6-(2-hydroxyphenyl)pyridazin-4-yl)piperazin-1-yl)pyrimidin-2-yl)prop-2-yn-1-yl)-1,5-dimethyl-1H-pyrazole-3-carboxamide] | 50 to 500 | 30 to 70 | 50 to 500 | ++ (++=30-70%)
9 | NCC#Cc1nccc(N2CCCC3(CCN(c4cc(-c5ccccc5O)nnc4N)CC3)C2)n1 [Compound P-87, 2-(6-amino-5-(2-(2-(3-aminoprop-1-yn-1-yl)pyrimidin-4-yl)-2,9-diazaspiro[5.5]undecan-9-yl)pyridazin-3-yl)phenol] | – | – | 500 to 5000 | + (+=<30%)
10 | NCC#Cc1nccc(N2CCC3C2CCCN3c2cc(-c3ccccc3O)nnc2N)n1 (stereo not drawn) [Compound P-88, 2-(6-amino-5-(1-(2-(3-aminoprop-1-yn-1-yl)pyrimidin-4-yl)octahydro-4H-pyrrolo[3,2-b]pyridin-4-yl)pyridazin-3-yl)phenol] | – | – | > 5000 | + (+=<30%)

Other lines, results leading:

Row | DC50 [1] [nM] | inhibition at 1 µM [1] [%] | DC50 [2] [nM] | SMARCA2 % Degradation @ 1 μM [2] | SMILES
11 | < 50 | 30 to 70 | 50 to 500 | ++ (++=30-70%) | CC1CN(c2cc(-c3ccccc3O)nnc2N)CCN1c1ccnc(C#CCNC(=O)c2cc3ncccn3n2)n1 (stereo in doubt) [Compound P-81, (R)-N-(3-(4-(4-(3-amino-6-(2-hydroxyphenyl)pyridazin-4-yl)-2-methylpiperazin-1-yl)pyrimidin-2-yl)prop-2-yn-1-yl)pyrazolo[1,5-a]pyrimidine-2-carboxamide]
12 | 50 to 500 | 30 to 70 | 50 to 500 | ++ (++=30-70%) | Cc1oncc1C(=O)NCC#Cc1nccc(N2CCN(c3cc(-c4ccccc4O)nnc3N)CC2)n1 [Compound P-3, N-[3-(4-{4-[3-amino-6-(2-hydroxyphenyl)pyridazin-4-yl]piperazin-1-yl}pyrimidin-2-yl)prop-2-yn-1-yl]-5-methyl-1,2-oxazole-4-carboxamide]
13 | < 50 | 30 to 70 | 50 to 500 | ++ (++=30-70%) | Cn1nc(C(=O)NCC#Cc2nccc(N3CCN(c4cc(-c5ccccc5O)nnc4N)CC3)n2)cc1C1CC1 [Compound P-6, N-[3-(4-{4-[3-amino-6-(2-hydroxyphenyl)pyridazin-4-yl]piperazin-1-y1}pyrimidin-2-yl)prop-2-yn-1-yl]-5-cyclopropyl-1-methyl-1H-pyrazole-3-carboxamide]
14 | < 50 | 30 to 70 | 50 to 500 | ++ (++=30-70%) | Nc1nnc(-c2ccccc2O)cc1N1CCN(c2ccnc(C#CCNC(=O)c3ccn(C(F)F)n3)n2)CC1 [Compound P-10, N-[3-(4-{4-[3-amino-6-(2-hydroxyphenyl)pyridazin-4-yl]piperazin-1-yl}pyrimidin-2-yl)prop-2-yn-1-y1]-1-(difluoromethyl)-1H-pyrazole-3-carboxamide]
15 | < 50 | 30 to 70 | < 50 | ++ (++=30-70%) | Nc1nnc(-c2ccccc2O)cc1N1CCN(c2ccnc(C#CCNC(=O)c3ccn(C4CC4)n3)n2)CC1 [Compound P-11, N-[3-(4-{4-[3-amino-6-(2-hydroxyphenyl)pyridazin-4-yl]piperazin-1-yl}pyrimidin-2-yl)prop-2-yn-1-y1]-1-cyclopropyl-1H-pyrazole-3-carboxamide]
16 | 50 to 500 | 30 to 70 | 50 to 500 | +++ (+++=>70%) | C[C@@H]1CCN(c2cc(-c3ccccc3O)nnc2N)CCN1c1ccnc(C#CCNC(=O)c2cc3ncccn3n2)n1 [Compound P-14, (R)-N-(3-(4-(4-(3-amino-6-(2-hydroxyphenyl)pyridazin-4-yl)-7-methyl-1,4-diazepan-1-yl)pyrimidin-2-yl)prop-2-yn-1-yl)pyrazolo[1,5-a]pyrimidine-2-carboxamide]
